Experimental data reported in PubChem BioAssay (NCI).
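Interpolation was linear, between the two tested concentrations surrounding the appropriate level; five concentrations were tested over 48 hours in 96-well plates. TGI: total growth inhibition.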

Key:
Assay in all cases: NCI tumour cell line growth inhibition, 48 h
HT29 colon = test system: HT29 colon
KM20L2 colon = test system: KM20L2 colon
LXFL 529 NSCLC = test system: LXFL 529 NSCLC
UACC-62 melanoma = test system: UACC-62 melanoma
RXF-631 renal = test system: RXF-631 renal
HCT-116 colon = test system: HCT-116 colon
K-562 leukemia = test system: K-562 leukemia
HCT-15 colon = test system: HCT-15 colon
OVCAR-4 ovarian = test system: OVCAR-4 ovarian
OVCAR-3 ovarian = test system: OVCAR-3 ovarian
OVCAR-5 ovarian = test system: OVCAR-5 ovarian
XF 498 CNS = test system: XF 498 CNS
UACC-257 melanoma = test system: UACC-257 melanoma
786-0 renal = test system: 786-0 renal
DMS 114 small cell lung = test system: DMS 114 small cell lung
IGROV1 ovarian = test system: IGROV1 ovarian
SNB-78 CNS = test system: SNB-78 CNS
ACHN renal = test system: ACHN renal
M14 melanoma = test system: M14 melanoma
OVCAR-8 ovarian = test system: OVCAR-8 ovarian
SK-OV-3 ovarian = test system: SK-OV-3 ovarian
KM12 colon = test system: KM12 colon
CCRF-CEM leukemia = test system: CCRF-CEM leukemia
A498 renal = test system: A498 renal
SF-539 CNS = test system: SF-539 CNS
HOP-62 NSCLC = test system: HOP-62 NSCLC
A549 NSCLC = test system: A549 NSCLC
COLO 205 colon = test system: COLO 205 colon
HCC-2998 colon = test system: HCC-2998 colon
EKVX NSCLC = test system: EKVX NSCLC
RPMI-8226 leukemia = test system: RPMI-8226 leukemia
U251 CNS = test system: U251 CNS
MALME-3M melanoma = test system: MALME-3M melanoma
LOX IMVI melanoma = test system: LOX IMVI melanoma
CAKI-1 renal = test system: CAKI-1 renal
NCI-H23 lung = test system: NCI-H23 lung
TK-10 renal = test system: TK-10 renal
DMS 273 small cell lung = test system: DMS 273 small cell lung
SK-MEL-2 melanoma = test system: SK-MEL-2 melanoma
SW-620 colon = test system: SW-620 colon
SF-295 CNS = test system: SF-295 CNS
SK-MEL-5 melanoma = test system: SK-MEL-5 melanoma
HL-60(TB) leukemia = test system: HL-60(TB) leukemia
MOLT-4 leukemia = test system: MOLT-4 leukemia
DLD-1 colon = test system: DLD-1 colon
SK-MEL-28 melanoma = test system: SK-MEL-28 melanoma
M19-MEL melanoma = test system: M19-MEL melanoma
HOP-92 NSCLC = test system: HOP-92 NSCLC
HOP-18 NSCLC = test system: HOP-18 NSCLC
NCI-H460 lung = test system: NCI-H460 lung
SNB-75 CNS = test system: SNB-75 CNS
NCI-H522 lung = test system: NCI-H522 lung
SNB-19 CNS = test system: SNB-19 CNS
SR leukemia = test system: SR leukemia
NCI-H226 lung = test system: NCI-H226 lung
SN12C renal = test system: SN12C renal
UO-31 renal = test system: UO-31 renal
SF-268 CNS = test system: SF-268 CNS

Compound: CC(=O)N1CCc2[nH]c3ccccc3c2CC1
- TGI (HT29 colon): > 100 µM
- TGI (KM20L2 colon): > 100 µM
- TGI (LXFL 529 NSCLC): > 100 µM
- TGI (UACC-62 melanoma): > 100 µM
- TGI (RXF-631 renal): > 100 µM
- TGI (HCT-116 colon): > 100 µM
- TGI (K-562 leukemia): > 100 µM
- TGI (HCT-15 colon): > 100 µM
- TGI (OVCAR-4 ovarian): > 100 µM
- TGI (OVCAR-3 ovarian): > 100 µM
- TGI (OVCAR-5 ovarian): > 100 µM
- TGI (XF 498 CNS): > 100 µM
- TGI (UACC-257 melanoma): > 100 µM
- TGI (786-0 renal): > 100 µM
- TGI (DMS 114 small cell lung): > 100 µM
- TGI (IGROV1 ovarian): > 100 µM
- TGI (SNB-78 CNS): > 100 µM
- TGI (ACHN renal): > 100 µM
- TGI (M14 melanoma): > 100 µM
- TGI (OVCAR-8 ovarian): > 100 µM
- TGI (SK-OV-3 ovarian): > 100 µM
- TGI (KM12 colon): > 100 µM
- TGI (CCRF-CEM leukemia): > 100 µM
- TGI (A498 renal): > 100 µM
- TGI (SF-539 CNS): > 100 µM
- TGI (HOP-62 NSCLC): > 100 µM
- TGI (A549 NSCLC): > 100 µM
- TGI (COLO 205 colon): > 100 µM
- TGI (HCC-2998 colon): > 100 µM
- TGI (EKVX NSCLC): > 100 µM
- TGI (RPMI-8226 leukemia): > 100 µM
- TGI (U251 CNS): > 100 µM
- TGI (MALME-3M melanoma): > 100 µM
- TGI (LOX IMVI melanoma): > 100 µM
- TGI (CAKI-1 renal): > 100 µM
- TGI (NCI-H23 lung): > 100 µM
- TGI (TK-10 renal): > 100 µM
- TGI (DMS 273 small cell lung): > 100 µM
- TGI (SK-MEL-2 melanoma): > 100 µM
- TGI (SW-620 colon): > 100 µM
- TGI (SF-295 CNS): > 100 µM
- TGI (SK-MEL-5 melanoma): > 100 µM
- TGI (HL-60(TB) leukemia): > 100 µM
- TGI (MOLT-4 leukemia): > 100 µM
- TGI (DLD-1 colon): > 100 µM
- TGI (SK-MEL-28 melanoma): > 100 µM
- TGI (M19-MEL melanoma): > 100 µM
- TGI (HOP-92 NSCLC): > 100 µM
- TGI (HOP-18 NSCLC): > 100 µM
- TGI (NCI-H460 lung): > 100 µM
- TGI (SNB-75 CNS): 98.9 µM

Compound: NC(N)=N/N=C(/CC1OC(=O)c2ccccc21)c1ccc2ccccc2c1 (stereo unspecified)
- TGI (HT29 colon): 45.7 µM
- TGI (KM20L2 colon): 57.2 µM
- TGI (LXFL 529 NSCLC): 27.7 µM
- TGI (NCI-H522 lung): 28.8 µM
- TGI (UACC-62 melanoma): 34.7 µM
- TGI (RXF-631 renal): 65.2 µM
- TGI (K-562 leukemia): 67 µM
- TGI (HCT-15 colon): 31.7 µM
- TGI (OVCAR-4 ovarian): 37.4 µM
- TGI (OVCAR-3 ovarian): 38.3 µM
- TGI (OVCAR-5 ovarian): > 100 µM
- TGI (XF 498 CNS): 20.9 µM
- TGI (SNB-19 CNS): > 100 µM
- TGI (UACC-257 melanoma): 28.7 µM
- TGI (786-0 renal): 32.4 µM
- TGI (DMS 114 small cell lung): 25.6 µM
- TGI (IGROV1 ovarian): 47.2 µM
- TGI (SNB-78 CNS): > 100 µM
- TGI (SR leukemia): 33.6 µM
- TGI (NCI-H226 lung): 32.4 µM
- TGI (ACHN renal): 33.7 µM
- TGI (M14 melanoma): 30.3 µM
- TGI (OVCAR-8 ovarian): 31.5 µM
- TGI (SK-OV-3 ovarian): 74 µM
- TGI (KM12 colon): 26.6 µM
- TGI (CCRF-CEM leukemia): 43.8 µM
- TGI (A498 renal): 33.4 µM
- TGI (SF-539 CNS): 31.9 µM
- TGI (HOP-62 NSCLC): 42.1 µM
- TGI (COLO 205 colon): 39 µM
- TGI (HCC-2998 colon): 31.1 µM
- TGI (EKVX NSCLC): 52.9 µM
- TGI (RPMI-8226 leukemia): 48 µM
- TGI (U251 CNS): 30.1 µM
- TGI (MALME-3M melanoma): 30 µM
- TGI (LOX IMVI melanoma): > 100 µM
- TGI (CAKI-1 renal): > 100 µM
- TGI (NCI-H23 lung): 88.6 µM
- TGI (SN12C renal): 42.2 µM
- TGI (TK-10 renal): 35 µM
- TGI (DMS 273 small cell lung): 44.9 µM
- TGI (SK-MEL-2 melanoma): > 100 µM
- TGI (UO-31 renal): 32.7 µM
- TGI (SF-295 CNS): > 100 µM
- TGI (SK-MEL-5 melanoma): 35.8 µM
- TGI (HL-60(TB) leukemia): 41.9 µM
- TGI (MOLT-4 leukemia): 79.4 µM
- TGI (DLD-1 colon): 28 µM
- TGI (SK-MEL-28 melanoma): 35.2 µM
- TGI (M19-MEL melanoma): 31.6 µM
- TGI (HOP-92 NSCLC): 55 µM
- TGI (HOP-18 NSCLC): 43.3 µM
- TGI (NCI-H460 lung): 32.5 µM
- TGI (SF-268 CNS): 31.8 µM
- TGI (SNB-75 CNS): 47.7 µM
